Data set [1] can be described thus: hydrolysis in aqueous solution. Type of data set: physicochemical. Particulars: aqueous solutions, pH not restricted. The text has this: The enantiomers of thalidomide have a solubility in water which is higher by a factor of 6 than that of the racemate.
Data set [2] has as its system cutaneous lupus erythematosus, pyoderma gangrenosum, orogenital ulcers with morbus Behcet, ulcerations in HIV-infected patients. Particulars: cited from earlier work.
Another data set relates to aphthous stomatitis. Conditions: treatment of aphthous stomatitis; cited from earlier work.
The conditions of data set [3]: Arch. Pharm. 321, 371 (1988); cited from earlier work.

In brackets after ≈: the same amount, converted by molar mass.

The values below come from patent US6124322A, “Intravenous form of thalidomide for treating immunological diseases” (Gruenenthal GmbH, priority 1997, dated 2000).

Take `O=C1CCC(N2C(=O)c3ccccc3C2=O)C(=O)N1` (racemic) [thalidomide]: the “hydrolysis in aqueous solution” value in data set [1] is recorded as “tendency of thalidomide to undergo spontaneous hydrolysis”. In addition, the “efficacy without general immunosuppression” value in data set [2] is listed as “good efficacy without resulting in a general immunosuppression”. In the data set on aphthous stomatitis, the “efficacy in aphthous stomatitis versus classical immunosuppressants” value was “superior to classical immunosuppressants”. In data set [3], the solubility in water was 12 µg/mL (≈ 46.5 µM).
